The target of the assay is T1, rat mGlu2 (Rattus norvegicus, UniProt P31421).
T1 construct: expressed in transfected cells
The assay can be described thus: mGlu2 Ca2+ flux assay. The format is cell-based. The settings on record: for IC50: Gα15 HEK293 cells stably expressing rat mGlu2, glutamate EC80 addition, read-out: rat mGlu2 IC50; for remaining activity at 30 µM: amplitude of response in the presence of 30 μM test compound as percentage of maximal response to glutamate, read-out: rat mGlu2 Glu max (%). The method, boiled down: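 Gα15 HEK293 cells stably expressing rat mGlu2, Fluo-4 loaded; compound added, then glutamate at EC20 after 2.3 min and EC80 afterward, calcium flux read as F/F0. Peak amplitude around EC80 addition normalized to glutamate max; IC50 by unconstrained 4-parameter fit, top concentration 30 μM.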
(Calcium flux is commonly read through the fluorescence of an indicator in the cells.)

T1 sequence (P31421 19-872): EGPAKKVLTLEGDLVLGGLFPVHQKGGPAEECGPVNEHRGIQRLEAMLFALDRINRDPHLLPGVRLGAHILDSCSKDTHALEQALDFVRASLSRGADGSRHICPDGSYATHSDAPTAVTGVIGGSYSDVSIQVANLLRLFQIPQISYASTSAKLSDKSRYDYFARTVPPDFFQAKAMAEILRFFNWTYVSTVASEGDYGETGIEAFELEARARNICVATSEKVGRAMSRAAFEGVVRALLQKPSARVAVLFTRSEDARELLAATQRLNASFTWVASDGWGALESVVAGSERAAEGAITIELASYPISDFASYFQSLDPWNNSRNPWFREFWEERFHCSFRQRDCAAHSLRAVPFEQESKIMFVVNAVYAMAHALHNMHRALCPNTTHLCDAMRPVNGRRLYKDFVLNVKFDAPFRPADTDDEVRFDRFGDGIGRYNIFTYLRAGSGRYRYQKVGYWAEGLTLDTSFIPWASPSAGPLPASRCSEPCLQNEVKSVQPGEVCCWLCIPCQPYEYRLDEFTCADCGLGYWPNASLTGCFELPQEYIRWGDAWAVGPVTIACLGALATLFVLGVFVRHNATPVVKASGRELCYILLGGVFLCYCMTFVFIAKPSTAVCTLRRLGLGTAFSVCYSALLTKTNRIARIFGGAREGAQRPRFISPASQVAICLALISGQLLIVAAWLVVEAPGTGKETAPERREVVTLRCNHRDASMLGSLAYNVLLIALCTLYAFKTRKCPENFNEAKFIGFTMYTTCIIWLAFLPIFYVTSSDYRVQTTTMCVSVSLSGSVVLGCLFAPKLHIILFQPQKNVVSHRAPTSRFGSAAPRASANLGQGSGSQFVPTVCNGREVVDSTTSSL

As usually defined, the IC50 is the concentration at which inhibition is half-maximal. In the case of `Cc1ncc(-c2ccc3c(c2)c(=O)c(C(N)=O)cn3-c2ccc(F)cc2)cn1` [Compound 62, 1-(4-fluorophenyl)-6-(2-methylpyrimidin-5-yl)-4-oxo-1,4-dihydroquinoline-3-carboxamide], the IC50 is > 10000 nM and the remaining activity at 30 µM was 30.3%.
In the case of `NC(=O)c1cn(-c2ccc(F)cc2)c2ccc(-c3ccncc3)cc2c1=O` [Compound 63, 1-(4-fluorophenyl)-4-oxo-6-(pyridin-4-yl)-1,4-dihydroquinoline-3-carboxamide], the 50% inhibitory concentration (IC50) is 407 nM and the remaining activity at 30 µM worked out at 0.97%.
Consider `C[C@@H]1CN(Cc2ccc3c(c2)c(=O)c(C(N)=O)cn3-c2ccc(F)cc2)C[C@H](C)O1` [Compound 64, 6-((cis-2,6-Dimethylmorpholino)methyl)-1-(4-fluorophenyl)-4-oxo-1,4-dihydroquinoline-3-carboxamide], for which the 50% inhibitory concentration (IC50) is 222 ± 36 nM and the remaining activity at 30 µM was determined as 1.42 ± 0.51%.
For `NC(=O)c1cn(-c2ccc(F)cc2)c2ccc(CN3CC4(C3)CC(F)(F)C4)cc2c1=O` [Compound 65, 6-((6,6-difluoro-2-azaspiro[3.3]heptan-2-yl)methyl)-1-(4-fluorophenyl)-4-oxo-1,4-dihydroquinoline-3-carboxamide], in that order: 2020 nM and 1.93%.
Take `NC(=O)c1cn(-c2ccc(F)cc2)c2ccc(CN3CCN(C4CC4)CC3)cc2c1=O` [Compound 66, 6-((4-cyclopropylpiperazin-1-yl)methyl)-1-(4-fluorophenyl)-4-oxo-1,4-dihydroquinoline-3-carboxamide]: the concentration for half-maximal inhibition (IC50) was determined as 1290 nM and the remaining activity at 30 µM came to 1.89%.
Consider `NC(=O)c1cn(-c2ccc(F)cc2)c2ccc(CN3CCCC4CCCCC43)cc2c1=O` (stereo not shown) [Compound 67, 1-(4-fluorophenyl)-6-((octahydroquinolin-1(2H)-yl)methyl)-4-oxo-1,4-dihydroquinoline-3-carboxamide], for which the IC50 worked out at 617 nM and the remaining activity at 30 µM worked out at 2.4%.
For `CC1CCN(C)CCN1Cc1ccc2c(c1)c(=O)c(C(N)=O)cn2-c1ccc(F)cc1` (stereo not shown) [Compound 68, 6-((4,7-dimethyl-1,4-diazepan-1-yl)methyl)-1-(4-fluorophenyl)-4-oxo-1,4-dihydroquinoline-3-carboxamide], in that order: 4040 nM and 2.47%.
As for `CN(Cc1ccc2c(c1)c(=O)c(C(N)=O)cn2-c1ccc(F)cc1)C1CCCC1` [Compound 69, 6-((cyclopentyl(methyl)amino)methyl)-1-(4-fluorophenyl)-4-oxo-1,4-dihydroquinoline-3-carboxamide], the IC50 was 2190 nM and the remaining activity at 30 µM worked out at 1.39%.
With `CN(Cc1ccc2c(c1)c(=O)c(C(N)=O)cn2-c1ccc(F)cc1)C1CC1` [Compound 70, 6-((cyclopropyl(methyl)amino)methyl)-1-(4-fluorophenyl)-4-oxo-1,4-dihydroquinoline-3-carboxamide], the IC50 came to 821 nM and the remaining activity at 30 µM was found to be 1.33%.
For the compound `NC(=O)c1cn(-c2ccc(F)cc2)c2ccc(CN3CCCSCC3)cc2c1=O` [Compound 71, 6-((1,4-thiazepan-4-yl)methyl)-1-(4-fluorophenyl)-4-oxo-1,4-dihydroquinoline-3-carboxamide], the IC50 came to 164 nM and the remaining activity at 30 µM was found to be 2.06%.
For the compound `NC(=O)c1cn(-c2ccc(F)cc2)c2ccc(CN3CCCOCC3)cc2c1=O` [Compound 72, 6-((1,4-oxazepan-4-yl)methyl)-1-(4-fluorophenyl)-4-oxo-1,4-dihydroquinoline-3-carboxamide], the IC50 was > 10000 nM and the remaining activity at 30 µM turned out to be 29.6%.
Consider `NC(=O)c1cn(-c2ccc(F)cc2)c2ccc(CN3CCCCCC3)cc2c1=O` [Compound 73, 6-(azepan-1-ylmethyl)-1-(4-fluorophenyl)-4-oxo-1,4-dihydroquinoline-3-carboxamide], for which the IC50 stood at 2590 nM and the remaining activity at 30 µM is 0.96%.
For the compound `COC1CCN(Cc2ccc3c(c2)c(=O)c(C(N)=O)cn3-c2ccc(F)cc2)CC1` [Compound 74, 1-(4-fluorophenyl)-6-((4-methoxypiperidin-1-yl)methyl)-4-oxo-1,4-dihydroquinoline-3-carboxamide], the IC50 was determined as 1880 nM and the remaining activity at 30 µM stood at 1.23%.
For `N#CC1CCN(Cc2ccc3c(c2)c(=O)c(C(N)=O)cn3-c2ccc(F)cc2)CC1` [Compound 75, 6-((4-cyanopiperidin-1-yl)methyl)-1-(4-fluorophenyl)-4-oxo-1,4-dihydroquinoline-3-carboxamide], in that order: 735 nM and 1.02%.
As for `CS(=O)(=O)C1CCN(Cc2ccc3c(c2)c(=O)c(C(N)=O)cn3-c2ccc(F)cc2)CC1` [Compound 76, 1-(4-fluorophenyl)-6-((4-(methylsulfonyl)piperidin-1-yl)methyl)-4-oxo-1,4-dihydroquinoline-3-carboxamide], the IC50 came to 1120 nM and the remaining activity at 30 µM worked out at 1.29%.
On to `NC(=O)c1cn(-c2ccc(F)cc2)c2ccc(CN3CCC(C(F)(F)F)CC3)cc2c1=O` [Compound 77, 1-(4-fluorophenyl)-4-oxo-6-((4-(trifluoromethyl)piperidin-1-yl)methyl)-1,4-dihydroquinoline-3-carboxamide], for which the IC50 worked out at 823 nM and the remaining activity at 30 µM amounted to 1.41%.
In the case of `NC(=O)c1cn(-c2ccc(F)cc2)c2ccc(CN3CCC(F)(F)CC3)cc2c1=O` [Compound 78, 6-((4,4-difluoropiperidin-1-yl)methyl)-1-(4-fluorophenyl)-4-oxo-1,4-dihydroquinoline-3-carboxamide], the IC50 is 197 ± 91 nM and the remaining activity at 30 µM worked out at 1.59 ± 0.27%.
For `CC1CN(Cc2ccc3c(c2)c(=O)c(C(N)=O)cn3-c2ccc(F)cc2)CCO1` (stereo not shown) [Compound 79, 1-(4-fluorophenyl)-6-((2-methylmorpholino)methyl)-4-oxo-1,4-dihydroquinoline-3-carboxamide], the IC50 worked out at 328 ± 64 nM and the remaining activity at 30 µM amounted to 1.31 ± 0.04%.
As to `CN(Cc1ccc2c(c1)c(=O)c(C(N)=O)cn2-c1ccc(F)cc1)C1CC(F)(F)C1` [Compound 80, 6-(((3,3-difluorocyclobutyl)(methyl)amino)methyl)-1-(4-fluorophenyl)-4-oxo-1,4-dihydroquinoline-3-carboxamide], the IC50 was found to be 397 nM and the remaining activity at 30 µM stood at 1.03%.
For `NC(=O)c1cn(-c2ccc(F)cc2)c2ccc(CN3CCN(CC(F)(F)F)CC3)cc2c1=O` [Compound 81, 1-(4-fluorophenyl)-4-oxo-6-((4-(2,2,2-trifluoroethyl)piperazin-1-yl)methyl)-1,4-dihydroquinoline-3-carboxamide], in that order: 753 nM and 1.19%.
Taken in the same sequence, the figures for `CC(=O)N1CCN(Cc2ccc3c(c2)c(=O)c(C(N)=O)cn3-c2ccc(F)cc2)CC1` [Compound 82, 6-((4-acetylpiperazin-1-yl)methyl)-1-(4-fluorophenyl)-4-oxo-1,4-dihydroquinoline-3-carboxamide] were 3190 nM and 2.14%.
Regarding `CS(=O)(=O)N1CCN(Cc2ccc3c(c2)c(=O)c(C(N)=O)cn3-c2ccc(F)cc2)CC1` [Compound 83, 1-(4-fluorophenyl)-6-((4-(methylsulfonyl)piperazin-1-yl)methyl)-4-oxo-1,4-dihydroquinoline-3-carboxamide], the half-inhibitory concentration (IC50) is 694 nM and the remaining activity at 30 µM came to 1.47%.
As to `NC(=O)c1cn(-c2ccc(F)cc2)c2ccc(CN3CCS(=O)(=O)CC3)cc2c1=O` [Compound 84, 6-((1,1-dioxidothiomorpholino)methyl)-1-(4-fluorophenyl)-4-oxo-1,4-dihydroquinoline-3-carboxamide], the IC50 was found to be 1160 nM and the remaining activity at 30 µM was found to be 2.04%.
Take `NC(=O)c1cn(-c2ccc(F)cc2)c2ccc(CN3CCCS(=O)(=O)CC3)cc2c1=O` [Compound 85, 6-((1,1-dioxido-1,4-thiazepan-4-yl)methyl)-1-(4-fluorophenyl)-4-oxo-1,4-dihydroquinoline-3-carboxamide]: the IC50 came out at 422 ± 52 nM and the remaining activity at 30 µM turned out to be 1.24 ± 0.04%.
In the case of `NC(=O)c1cn(-c2ccc(F)cc2)c2ccc(CN3CCC(F)(F)C3)cc2c1=O` [Compound 86, 6-((3,3-difluoropyrrolidin-1-yl)methyl)-1-(4-fluorophenyl)-4-oxo-1,4-dihydroquinoline-3-carboxamide], the IC50 was determined as 259 nM and the remaining activity at 30 µM is 0.98%.
For `CN1CCN(Cc2ccc3c(c2)c(=O)c(C(N)=O)cn3-c2ccc(F)cc2)CC1` [Compound 87, 1-(4-fluorophenyl)-6-((4-methylpiperazin-1-yl)methyl)-4-oxo-1,4-dihydroquinoline-3-carboxamide], the concentration for half-maximal inhibition (IC50) stood at 1360 nM and the remaining activity at 30 µM was determined as 0.93%.
`C[C@H]1CN(Cc2ccc3c(c2)c(=O)c(C(N)=O)cn3-c2ccc(F)cc2)CCO1` [Compound 88, (S)-1-(4-fluorophenyl)-6-((2-methylmorpholino)methyl)-4-oxo-1,4-dihydroquinoline-3-carboxamide]: the IC50 stood at 724 nM and the remaining activity at 30 µM came out at 1.36%.
Regarding `C[C@@H]1CN(Cc2ccc3c(c2)c(=O)c(C(N)=O)cn3-c2ccc(F)cc2)CCO1` [Compound 89, (R)-1-(4-fluorophenyl)-6-((2-methylmorpholino)methyl)-4-oxo-1,4-dihydroquinoline-3-carboxamide], the IC50 worked out at 1150 nM and the remaining activity at 30 µM stood at 1.08%.
For `CC1(C)CN(Cc2ccc3c(c2)c(=O)c(C(N)=O)cn3-c2ccc(F)cc2)CCO1` [Compound 90, 6-((2,2-dimethylmorpholino)methyl)-1-(4-fluorophenyl)-4-oxo-1,4-dihydroquinoline-3-carboxamide], the IC50 was 142 nM and the remaining activity at 30 µM amounted to 2.01%.

The values are drawn from patent publication US9382208B1, “Negative allosteric modulators of metabotropic glutamate receptor 2” (Vanderbilt University, priority 2015, dated 2016).
